Measured values reported in patent US6310056A, “Carbapenem derivatives” (Meiji Seika Kaisha, Ltd., priority 1997, dated 2001).
Converted amounts (≈) assume the structure as drawn. Structures can show the parent of a compound that is named as a salt.

How the values were obtained:
P. vulgaris GN7919 = test: Anti-microbial activities (MIC); assay type: cell-based; details: Proteus vulgaris, Sensitivity Disk agar-N+5% Horse blood, 10^6 CFU/ml, read-out: minimum inhibiting concentration (MIC)
Description: (§1) The minimum inhibiting concentrations (MIC, […]) of the compounds according to the present invention to various pathogenic bacteria was measured in accordance with the method described in CHEMOTHERAPY, vol. 16, No. 1, 99, 1968. The culture medium for measurement was Sensitivity Disk agar-N+5% Horse blood, and the amount of inoculants was 10^6 CFU/ml.

E. hirae ATCC8043 = test: Anti-microbial activities (MIC); assay type: cell-based; details: Enterococcus hirae, Sensitivity Disk agar-N+5% Horse blood, 10^6 CFU/ml, read-out: minimum inhibiting concentration (MIC)
Description: as §1

E. faecalis W-73 = test: Anti-microbial activities (MIC); assay type: cell-based; details: Enterococcus faecalis, W73, Sensitivity Disk agar-N+5% Horse blood, 10^6 CFU/ml, read-out: minimum inhibiting concentration (MIC)
Description: as §1

K. pneumoniae PCI602 = test: Anti-microbial activities (MIC); assay type: cell-based; details: Klebsiella pneumoniae, Sensitivity Disk agar-N+5% Horse blood, 10^6 CFU/ml, read-out: minimum inhibiting concentration (MIC)
Description: as §1

E. coli NIHJ JC-2 = test: Anti-microbial activities (MIC); assay type: cell-based; details: Escherichia coli, NIHJJC2, Sensitivity Disk agar-N+5% Horse blood, 10^6 CFU/ml, read-out: minimum inhibiting concentration (MIC)
Description: as §1

H. influenzae PRC44 = test: Anti-microbial activities (MIC); assay type: cell-based; details: Haemophilus influenzae, Sensitivity Disk agar-N+5% Horse blood, 10^6 CFU/ml, read-out: minimum inhibiting concentration (MIC)
Description: as §1

S. epidermidis ATCC14990 = test: Anti-microbial activities (MIC); assay type: cell-based; details: Staphylococcus epidermidis, Sensitivity Disk agar-N+5% Horse blood, 10^6 CFU/ml, read-out: minimum inhibiting concentration (MIC)
Description: as §1

B. catarrhalis W-0506 = test: Anti-microbial activities (MIC); assay type: cell-based; details: Moraxella catarrhalis, W0506, Sensitivity Disk agar-N+5% Horse blood, 10^6 CFU/ml, read-out: minimum inhibiting concentration (MIC)
Description: as §1

C. freundii GN346 = test: Anti-microbial activities (MIC); assay type: cell-based; details: Citrobacter freundii, Sensitivity Disk agar-N+5% Horse blood, 10^6 CFU/ml, read-out: minimum inhibiting concentration (MIC)
Description: as §1

H. influenzae PRC2 = test: Anti-microbial activities (MIC); assay type: cell-based; details: Haemophilus influenzae, Sensitivity Disk agar-N+5% Horse blood, 10^6 CFU/ml, read-out: minimum inhibiting concentration (MIC)
Description: as §1

S. aureus 209P JC-1 = test: Anti-microbial activities (MIC); assay type: cell-based; details: Staphylococcus aureus, Sensitivity Disk agar-N+5% Horse blood, 10^6 CFU/ml, read-out: minimum inhibiting concentration (MIC)
Description: as §1

[1] = test system: S. pneumoniae PRC9 (penicillin-hyper resistant strain, PRSP); test: Anti-microbial activities (MIC); assay type: cell-based; details: Streptococcus pneumoniae, Sensitivity Disk agar-N+5% Horse blood, 10^6 CFU/ml, read-out: minimum inhibiting concentration (MIC)
Description: as §1
**: penicillin-hyper resistant strain (PRSP);

[2] = Stability against DHP-I, mouse; assay type: in vitro ADME; details: renal dehydropeptidase i, pH 7, 100 μg (titer)/ml, 37° C., HPLC, read-out: residual amount after 3 hours
Description: (§2) The stabilities of the compounds according to the present invention against porcine and mouse renal dehydropeptidases were measured by the following method.
(§3) Kidney acetone powder, Porcine Type II(Sigma; Lot. 33H7225; 1.5 g) was suspended in a 50 mM Tris.HCl buffer (pH 7.0) containing 20% butanol, and the mixture was stirred at 5° C. for 48 hours. Dialysis (Cellulose tube 30/32; Viskase Sales Corp) was conducted with a 50 mM Tris.HCl buffer (pH 7.0) in order to remove butanol to a level of no smell of butanol. The dialysate was centrifuged at 10000×g (KUBOTA 6800) for 20 minutes to give a supernatant as a partly purified DHP-I, which was divided into portions and stored at -80° C. Also, a partly purified DHP-I was prepared from 1.5 g of Mouse (Lot. 23F8105), and stored in the same manner as above.
(§4) The compounds according to the present invention as a basic pharmaceutical was diluted with sterile purified water to prepare a solution having a titer of 2000 μg/ml. The solution of the compound according to the present invention having a titer of 2000 μg/ml was added to the partly purified DHP-I's of the above described animals so as to have a final concentration of 100 μg (titer)/ml. As a blank, 50 mM Tris.HCl buffer (pH 7.0) was used in place of the partly purified DHP-I's of the animals. After reaction at 37° C. for 3 hours, a portion of the reaction mixture was taken out, diluted with the same amount of methanol to stop the reaction by cooling in ice. The reaction mixture was filtered through SUNPLEP LCR13-LH, MILLIPORE), and subjected to HPLC (column: CAPCELL PACK C18 SG120, SHISEIDO; UV detector; mobile phase: acetonitrile--10 mM aqueous acetic acid solution) to measure the residual amount (%) of […] according to the following equation. [formula]

[3] = Stability against DHP-I, porcine; assay type: in vitro ADME; details: pig, renal dehydropeptidase i, pH 7, 100 μg (titer)/ml, 37° C., HPLC, read-out: residual amount after 3 hours
Description: as §2, §3, §4

[4] = test system: S. aureus M126 (methicillin-hyper resistant strain, MRSA); test: Anti-microbial activities (MIC); assay type: cell-based; details: Staphylococcus aureus, Sensitivity Disk agar-N+5% Horse blood, 10^6 CFU/ml, read-out: minimum inhibiting concentration (MIC)
Description: as §1
*: methicillin-hyper resistant strain (MRSA);

Acute toxicity test = assay type: in vivo, mice (ICR, male); details: intravenous, 2000 mg/kg, mice, n=3
Description: The compound of Example 1 was administered intravenously to mice (ICR, male, n =3) in an amount of 2000 mg/kg.

Structure (SMILES) | MIC (P. vulgaris GN7919) | MIC (E. hirae ATCC8043) | MIC (E. faecalis W-73) | MIC (K. pneumoniae PCI602) | MIC (E. coli NIHJ JC-2) | MIC (H. influenzae PRC44) | MIC (S. epidermidis ATCC14990) | MIC (B. catarrhalis W-0506) | MIC (C. freundii GN346) | MIC (H. influenzae PRC2) | MIC (S. aureus 209P JC-1) | MIC [1] | remaining at 3 h [2] | remaining at 3 h [3] | MIC [4] | survival (acute toxicity) (Acute toxicity test)
C[C@@H](O)[C@H]1C(=O)N2C(C(=O)O)=C(c3cn4cncc4s3)C[C@H]12 [Example 8, (5R,6S)-6-((1R)-1-hydroxyethyl)-2-(imidazo[5,1-b]thiazol-2-yl)-1-carbapen-2-em-3-carboxylic Acid] | 0.1 µg/mL (≈ 0.313 µM) | 0.78 µg/mL (≈ 2.44 µM) | 0.39 µg/mL (≈ 1.22 µM) | 0.05 µg/mL (≈ 0.157 µM) | 0.1 µg/mL (≈ 0.313 µM) | 0.78 µg/mL (≈ 2.44 µM) | 0.05 µg/mL (≈ 0.157 µM) | < 0.025 µg/mL | 0.2 µg/mL (≈ 0.626 µM) | 0.05 µg/mL (≈ 0.157 µM) | < 0.025 µg/mL | 0.2 µg/mL (≈ 0.626 µM) | < 0.2% | 60% | 6.25 µg/mL (≈ 19.6 µM) | 
C[C@@H](O)[C@H]1C(=O)N2C(C(=O)O)=C(c3cn4cncc4s3)[C@H](C)[C@H]12 [Example 1, (1S,5R,6S)-6-((1R)-1-hydroxyethyl)-2-(imidazo[5,1-b]thiazol-2-yl)-1-methyl-1-carbapen-2-em-3-carboxylic Acid] | 0.05 µg/mL (≈ 0.15 µM) | 0.39 µg/mL (≈ 1.17 µM) | 0.2 µg/mL (≈ 0.6 µM) | 0.1 µg/mL (≈ 0.3 µM) | 0.1 µg/mL (≈ 0.3 µM) | 0.39 µg/mL (≈ 1.17 µM) | < 0.025 µg/mL | < 0.025 µg/mL | 1.56 µg/mL (≈ 4.68 µM) | < 0.025 µg/mL | < 0.025 µg/mL | 0.1 µg/mL (≈ 0.3 µM) | < 2.9% | 87% | 3.13 µg/mL (≈ 9.39 µM) | all of the animals were survived
C[C@@H](O)[C@H]1C(=O)N2C(C(=O)O)=C(S[C@@H]3CN[C@H](Cc4cn5c[n+](C)cc5s4)C3)[C@H](C)[C@H]12 [Compound B, (1R,5S,6S)-6-((1R)-1-hydroxyethyl)-1-methyl-2-[(3S,5S)-5-(6-methylimidazo[5,1-b]thiazolium-2-yl)methylpyrrolidin-3-yl]thiocarbapen-2-em-3-carboxylic acid iodide, reference compound] | 0.1 µg/mL | 1.56 µg/mL | 3.13 µg/mL | 0.1 µg/mL | 0.05 µg/mL | 0.78 µg/mL | 0.05 µg/mL | < 0.025 µg/mL | 0.1 µg/mL | 0.1 µg/mL | < 0.025 µg/mL | 0.39 µg/mL |  |  | 6.25 µg/mL | 

Now from value to compound, other results behind:

MIC (P. vulgaris GN7919) | MIC (E. hirae ATCC8043) | MIC (E. faecalis W-73) | MIC (K. pneumoniae PCI602) | MIC (E. coli NIHJ JC-2) | MIC (H. influenzae PRC44) | MIC (S. epidermidis ATCC14990) | MIC (B. catarrhalis W-0506) | MIC (C. freundii GN346) | MIC (H. influenzae PRC2) | MIC (S. aureus 209P JC-1) | MIC [1] | remaining at 3 h [2] | remaining at 3 h [3] | MIC [4] | Structure (SMILES) | survival (acute toxicity) (Acute toxicity test)
0.1 µg/mL (≈ 0.334 µM) | 0.78 µg/mL (≈ 2.61 µM) | 0.78 µg/mL (≈ 2.61 µM) | 0.2 µg/mL (≈ 0.668 µM) | 0.1 µg/mL (≈ 0.334 µM) | 12.5 µg/mL (≈ 41.8 µM) | < 0.025 µg/mL | < 0.025 µg/mL | 0.2 µg/mL (≈ 0.668 µM) | 0.78 µg/mL (≈ 2.61 µM) | < 0.025 µg/mL | 0.2 µg/mL (≈ 0.668 µM) | 24% | 0.6% | 25 µg/mL (≈ 83.5 µM) | C[C@@H](O)[C@H]1C(=O)N2C(C(=O)O)=C(SCCN=CN)C[C@H]12 [Compound A, imipenem, reference compound] | 
 |  |  |  |  |  |  |  |  |  |  |  | 18% | 72% |  | C[C@@H](O)[C@H]1C(=O)N2C(C(=O)O)=C(S[C@@H]3CN[C@H](C(=O)N(C)C)C3)[C@H](C)[C@H]12 [C, meropenem, reference compound] | 
0.1 µg/mL | 0.78 µg/mL | 0.1 µg/mL | 0.05 µg/mL | < 0.025 µg/mL | 0.39 µg/mL | < 0.025 µg/mL | < 0.025 µg/mL | 0.1 µg/mL | 0.05 µg/mL | < 0.025 µg/mL | 0.05 µg/mL | 94% | 100% | 3.13 µg/mL | C[C@@H](O)[C@H]1C(=O)N2C(C(=O)[O-])=C(c3cn4c[n+](C)cc4s3)[C@H](C)[C@H]12 [Example 4, (1S,5R,6S)-6-((1R)-1-hydroxyethyl)-1-methyl-2-(6-methylimidazo[5,1-b]thiazolium-2-yl)-1-carbapen-2-em-3-carboxylate (inner salt)] | 
